Source: ChEMBL document CHEMBL3994563 (Medchemcomm, 2016)
Active and inactive are the calls of the source. The calls are words filed in the database; no cut-off is given here.

Assays:
PC-3 = experiment: Antiproliferative activity against human PC3 cells after 48 hrs by MTT assay; assay type: functional, cell-based; conditions: PC-3, 48 h
Caco-2 = experiment: Antiproliferative activity against human Caco2 cells after 48 hrs by MTT assay; assay type: functional, cell-based; conditions: Caco-2, 48 h
A549 = experiment: Antiproliferative activity against human A549 cells after 48 hrs by MTT assay; assay type: functional, cell-based; conditions: A549, 48 h
A-375 [1] = experiment: Antiproliferative activity against human A375 cells after 48 hrs by MTT assay; assay type: functional, cell-based; conditions: A-375, 48 h
MIA PaCa-2 [2] = experiment: Antiproliferative activity against human MIAPaCa2 cells after 48 hrs by MTT assay; assay type: functional, cell-based; conditions: MIA PaCa-2, 48 h
[3] = Antiproliferative activity against human HPDEC after 48 hrs by MTT assay; assay type: cell-based
A-375 [4] = experiment: Cell cycle arrest in human A375 cells assessed as accumulation at G2/M phase at IC50 after 48 hrs by propidium iodide staining based flow cytometry; assay type: functional
MIA PaCa-2 [5] = experiment: Cell cycle arrest in human MIAPaCa2 cells assessed as decrease in G1 population at IC50 after 48 hrs by propidium iodide staining based flow cytometry; assay type: functional
A-375 [6] = experiment: Cell cycle arrest in human A375 cells assessed as accumulation at sub-G0/G1 phase at IC50 after 48 hrs by propidium iodide staining based flow cytometry; assay type: functional
MIA PaCa-2 [7] = experiment: Cell cycle arrest in human MIAPaCa2 cells assessed as accumulation at G2/M phase at IC50 after 48 hrs by propidium iodide staining based flow cytometry; assay type: functional
MIA PaCa-2 [8] = experiment: Antiproliferative activity against human MIAPaCa2 cells assessed as reduction in cell viability at IC50 after 24 hrs by calcein AM staining based confocal microscopy; assay type: functional
A-375 [9] = experiment: Antiproliferative activity against human A375 cells assessed as reduction in colony formation measured after 10 to 14 days by crystal violet staining based microscopic method; assay type: functional, cell-based
MIA PaCa-2 [10] = experiment: Antiproliferative activity against human MIAPaCa2 cells assessed as reduction in colony formation measured after 10 to 14 days by crystal violet staining based microscopic method; assay type: functional, cell-based
A-375 [11] = experiment: Cell cycle arrest in human A375 cells assessed as decrease in G1 population at IC50 after 48 hrs by propidium iodide staining based flow cytometry; assay type: functional
A-375 [12] = experiment: Antiproliferative activity against human A375 cells assessed as reduction in cell viability at IC50 after 24 hrs by calcein AM staining based confocal microscopy; assay type: functional
MIA PaCa-2 [13] = experiment: Cell cycle arrest in human MIAPaCa2 cells assessed as accumulation at sub-G0/G1 phase at IC50 after 48 hrs by propidium iodide staining based flow cytometry; assay type: functional

Row | IC50 (PC-3) | IC50 (Caco-2) | IC50 (A549) | IC50 (A-375 [1]) | IC50 (MIA PaCa-2 [2]) | Structure (SMILES) | IC50 [3] | Activity (A-375 [4]) | Activity (MIA PaCa-2 [5]) | Activity (A-375 [6]) | Activity (MIA PaCa-2 [7]) | Activity (MIA PaCa-2 [8]) | Activity (A-375 [9]) | Activity (MIA PaCa-2 [10]) | Activity (A-375 [11]) | Activity (A-375 [12]) | Activity (MIA PaCa-2 [13])
1 | 51.4 µM | > 100 µM | > 100 µM | > 100 µM | 69.8 µM | Cc1ccc(C#Cc2sc(C)c(C)c2C(=O)c2ccccc2)cc1 | – | – | – | – | – | – | – | – | – | – | –
2 | 37.5 µM | 47.6 µM | 32.7 µM | 27 µM | 36.4 µM | Cc1ccc(C(=O)c2c(-c3ccccc3)sc3c2CCCC3)cc1 | – | – | – | – | – | – | – | – | – | – | –
3 | 25.4 µM | > 100 µM | 39.5 µM | 43.2 µM | > 100 µM | Cc1ccc(C(=O)c2c(C#Cc3ccccc3)sc(C)c2C)cc1 | – | – | – | – | – | – | – | – | – | – | –
4 | 6.49 µM | 7.49 µM | 6.51 µM | 1.17 µM | 4.32 µM | COc1cc(C(=O)c2c(C#Cc3ccccc3)sc(C)c2C)cc(OC)c1OC | 36.1 µM | – | – | – | – | – | – | – | – | – | –
5 | > 100 µM | 64.7 µM | 31 µM | > 100 µM | 23.7 µM | Cc1sc(-c2ccccc2)c(C(=O)c2ccc([N+](=O)[O-])cc2)c1C | – | – | – | – | – | – | – | – | – | – | –
6 | 23.1 µM | 14.8 µM | 20.2 µM | 4.63 µM | 8.48 µM | O=C(c1ccccc1)c1c(C#Cc2ccccc2)sc2c1CCCC2 | 18.9 µM | – | – | – | – | – | – | – | – | – | –
7 | 14.5 µM | 16.8 µM | 8.14 µM | 1.9 µM | 35.2 µM | COc1ccc(C(=O)c2c(C#Cc3ccccc3)sc3c2CCCC3)cc1 | 35.6 µM | – | – | – | – | – | – | – | – | – | –
8 | 21.4 µM | 18.3 µM | 13.6 µM | 9.35 µM | 29.4 µM | COc1ccc(C(=O)c2c(C#Cc3ccccc3)sc(C)c2C)cc1 | – | – | – | – | – | – | – | – | – | – | –
9 | 31.5 µM | 34.2 µM | 24 µM | 28 µM | 31.2 µM | Cc1sc(C#Cc2ccccc2)c(C(=O)c2ccccc2)c1C | – | – | – | – | – | – | – | – | – | – | –
10 | 21.4 µM | 34.2 µM | 30.1 µM | 13.1 µM | 16.4 µM | Cc1ccc(C#Cc2sc3c(c2C(=O)c2ccc([N+](=O)[O-])cc2)CCCC3)cc1 | – | – | – | – | – | – | – | – | – | – | –
11 | 23.4 µM | 18.6 µM | 9.42 µM | 5.34 µM | 8.84 µM | COc1ccc(C(=O)c2c(-c3ccccc3)sc3c2CCCC3)cc1 | 21.4 µM | – | – | – | – | – | – | – | – | – | –
12 | 20.4 µM | 10.4 µM | 11.3 µM | 10.1 µM | 17.2 µM | Cc1ccc(C(=O)c2c(C#Cc3ccccc3)sc3c2CCCC3)cc1 | – | – | – | – | – | – | – | – | – | – | –
13 | 14.6 µM | 28.1 µM | 24.2 µM | 20.5 µM | 13.2 µM | O=C(c1ccc([N+](=O)[O-])cc1)c1c(-c2ccccc2)sc2c1CCCC2 | – | – | – | – | – | – | – | – | – | – | –
14 | 1.9 µM | 2.8 µM | 0.4 µM | 0.68 µM | 2.5 µM | CC(=O)O[C@H]1C(=O)[C@@]2(C)[C@H]([C@H](OC(=O)c3ccccc3)[C@]3(O)C[C@H](OC(=O)[C@H](O)[C@@H](NC(=O)c4ccccc4)c4ccccc4)C(C)=C1C3(C)C)[C@]1(OC(C)=O)CO[C@@H]1C[C@@H]2O [PACLITAXEL] | – | – | – | – | – | – | – | – | – | – | –
15 | > 100 µM | > 100 µM | > 100 µM | > 100 µM | > 100 µM | Cc1ccc(C#Cc2sc3c(c2C(=O)c2ccccc2)CCCC3)cc1 | – | – | – | – | – | – | – | – | – | – | –
16 | 12.3 µM | 4.52 µM | 2.8 µM | 0.81 µM | 3 µM | O=C(c1ccc([N+](=O)[O-])cc1)c1c(C#Cc2ccccc2)sc2c1CCCC2 | > 50 µM | Active | Active | Active | Active | Active | Active | Active | Active | Active | Active
17 | 26 µM | > 100 µM | > 100 µM | 51.2 µM | > 100 µM | Cc1ccc(C(=O)c2c(-c3ccccc3)sc(C)c2C)cc1 | – | – | – | – | – | – | – | – | – | – | –
18 | 48.2 µM | 31.5 µM | 27.3 µM | 30.7 µM | 42 µM | Cc1ccc(C#Cc2sc3c(c2C(=O)c2ccc(C)cc2)CCCC3)cc1 | – | – | – | – | – | – | – | – | – | – | –
19 | 23.8 µM | 20.4 µM | 14 µM | 16.3 µM | 18.2 µM | O=C(c1ccccc1)c1c(-c2ccccc2)sc2c1CCCC2 | – | – | – | – | – | – | – | – | – | – | –
20 | 23.4 µM | 15.7 µM | 6.28 µM | 3.71 µM | 24.6 µM | Cc1ccc(C(=O)c2c(-c3ccccc3)sc3c2CCCCC3)cc1 | 25.8 µM | – | – | – | – | – | – | – | – | – | –
21 | 22.1 µM | 18.1 µM | 15.8 µM | 7.72 µM | 12 µM | O=C(c1ccccc1)c1c(-c2ccccc2)sc2c1CCCCC2 | 14.6 µM | – | – | – | – | – | – | – | – | – | –
22 | 40.6 µM | 31.4 µM | > 100 µM | 26.4 µM | 79 µM | Cc1ccc(C#Cc2sc(C)c(C)c2C(=O)c2ccc([N+](=O)[O-])cc2)cc1 | – | – | – | – | – | – | – | – | – | – | –
23 | 33.4 µM | 25.1 µM | 19 µM | 21.2 µM | 21.9 µM | Cc1sc(C#Cc2ccccc2)c(C(=O)c2ccc([N+](=O)[O-])cc2)c1C | – | – | – | – | – | – | – | – | – | – | –
24 | 39.5 µM | 38 µM | 21.9 µM | 31.1 µM | > 100 µM | Cc1sc(-c2ccccc2)c(C(=O)c2ccccc2)c1C | – | – | – | – | – | – | – | – | – | – | –
25 | > 100 µM | > 100 µM | 45.3 µM | > 100 µM | > 100 µM | Cc1ccc(C#Cc2sc(C)c(C)c2C(=O)c2ccc(C)cc2)cc1 | – | – | – | – | – | – | – | – | – | – | –
26 | 15.5 µM | 8.26 µM | 12.9 µM | 3.88 µM | 5.08 µM | COc1cc(C(=O)c2c(C#Cc3ccccc3)sc3c2CCCC3)cc(OC)c1OC | > 50 µM | – | – | – | – | – | – | – | – | – | –
27 | 37.5 µM | 28.3 µM | 18.9 µM | 22.5 µM | 21.2 µM | COc1cc(C(=O)c2c(C#Cc3ccc(C)cc3)sc3c2CCCC3)cc(OC)c1OC | – | – | – | – | – | – | – | – | – | – | –
28 | 40.1 µM | 6.1 µM | 5.39 µM | 1.07 µM | 5.35 µM | O=C(c1ccc([N+](=O)[O-])cc1)c1c(-c2ccccc2)sc2c1CCCCC2 | > 50 µM | Active | Active | Active | Active | Active | Active | Active | Active | Active | Active
